{
  "source": "ChEMBL document CHEMBL4196234",
  "about": "“Deciphering Binding Interactions of IL-23R with HDX-MS: Mapping Protein and Macrocyclic Dodecapeptide Ligands” (ACS Med Chem Lett, 2018)",
  "key": {"[1]": {"target": "T1, Interleukin-23 receptor (Homo sapiens) (UniProt Q5VWK5)", "T1 sequence (whole entry)": "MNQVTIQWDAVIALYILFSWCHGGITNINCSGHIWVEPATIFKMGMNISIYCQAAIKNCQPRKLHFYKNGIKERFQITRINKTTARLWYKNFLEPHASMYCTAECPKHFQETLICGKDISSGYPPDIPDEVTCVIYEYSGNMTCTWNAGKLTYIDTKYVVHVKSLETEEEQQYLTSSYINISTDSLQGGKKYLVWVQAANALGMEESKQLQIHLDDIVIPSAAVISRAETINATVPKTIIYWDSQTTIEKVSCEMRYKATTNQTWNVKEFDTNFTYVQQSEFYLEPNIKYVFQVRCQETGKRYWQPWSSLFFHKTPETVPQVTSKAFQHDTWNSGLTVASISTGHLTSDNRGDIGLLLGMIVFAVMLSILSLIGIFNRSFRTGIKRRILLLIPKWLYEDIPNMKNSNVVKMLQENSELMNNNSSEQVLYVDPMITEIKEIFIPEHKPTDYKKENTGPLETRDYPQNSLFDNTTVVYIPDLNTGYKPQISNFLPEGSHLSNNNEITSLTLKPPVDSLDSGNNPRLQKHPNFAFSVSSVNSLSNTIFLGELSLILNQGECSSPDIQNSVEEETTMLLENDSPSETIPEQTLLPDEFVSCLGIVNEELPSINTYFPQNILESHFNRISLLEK", "assay": "Binding affinity to recombinant human flag/His-tagged IL-23R (1 to 353 residues) expressed in HEK293F cells assessed as association rate constant measured over 90 secs by surface plasmon resonance assay"}, "[2]": {"target": "T2, Interleukin-23 receptor (Homo sapiens, UniProt Q5VWK5)", "T2 sequence (Q5VWK5 whole entry)": "T1 sequence (whole entry)", "assay": "Binding affinity to recombinant human flag/His-tagged IL-23R (1 to 353 residues) expressed in HEK293F cells measured over 90 secs by surface plasmon resonance assay"}, "[3]": {"target": "T2, Interleukin-23 receptor", "assay": "Binding affinity to recombinant human flag/His-tagged IL-23R (1 to 353 residues) expressed in HEK293F cells assessed as disruption of biotinylated IL-23 binding to receptor preincubated for 1 hr followed by biotinylated IL-23 addition measured after 1 hr by TR-FRET assay", "format": "cell-based"}, "[4]": {"target": "T2, Interleukin-23 receptor", "assay": "Binding affinity to recombinant human flag/His-tagged IL-23R (1 to 353 residues) expressed in HEK293F cells assessed as dissociation rate constant measured over 90 secs by surface plasmon resonance assay"}, "[5]": {"target": "T2, Interleukin-23 receptor", "assay": "Binding affinity to recombinant human flag/His-tagged IL-23R (1 to 353 residues) expressed in HEK293F cells assessed as disruption of biotinylated IL-23 binding to receptor preincubated for 1 hr followed by biotinylated IL-23 addition measured after over night incubation by AlphaLISA assay", "format": "cell-based"}},
  "data": [
    {"smiles": "CC(=O)N[C@H]1CCSC[C@@H](C(=O)N[C@@H](Cc2ccc(OCCN)cc2)C(=O)N[C@@H](Cc2c[nH]c3ccccc23)C(=O)N[C@@](C)(CCCCN)C(=O)N[C@@H](CCC(=O)O)C(=O)N[C@@H](CC(N)=O)C(=O)NCC(N)=O)NC(=O)[C@H](CCC(N)=O)NC(=O)[C@H](Cc2c[nH]c3ccccc23)NC(=O)[C@H]([C@@H](C)O)NC(=O)[C@H](CCC(N)=O)NC1=O", "values": [
      {"measurement": "Ka", "setting": "[1]", "value": "1.51 ×10⁷ (1/Ms)"},
      {"measurement": "Kd", "setting": "[2]", "value": "1.81 to 2", "unit": "nM"},
      {"measurement": "IC50", "setting": "[3]", "value": 5.1, "unit": "nM"},
      {"measurement": "Kd", "setting": "[4]", "value": "2.74 ×10⁻² (1/s)"},
      {"measurement": "IC50", "setting": "[5]", "value": 2.7, "unit": "nM"}
    ]}
  ]
}
